Source: patent publication US11214540B2, “Compositions for treating neurodegenerative diseases” (COGNITION THERAPEUTICS, INC., priority 2017, dated 2022)

Tests used:
[1] = tested on: Abeta oligomer-induced membrane trafficking deficits in primary hippocampal neurons; assay: Membrane Trafficking/Exocytosis (MTT) assay, Abeta oligomer effect on neurons; type: cell-based, rat; settings: membrane trafficking; read-out: EC50 Abeta;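 note: compound potency for inhibiting the Abeta oligomer effect on exocytosis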
Procedure: Compounds according to any embodiment described herein, were tested for their ability to inhibit an amyloid beta effect on the cells. The compounds generally were able to inhibit the amyloid beta effect as measured by a membrane trafficking/exocytosis assay (MTT assay). The rationale for this assay was as follows:
The present exocytosis assay was adapted for use with mature primary neuronal cultures grown for 3 weeks in vitro. See WO 2011/106785, which is incorporated herein by reference in its entirety. Abeta oligomers cause a dose-dependent decrease in the amount of intracellular vesicles (puncta) filled with reduced purple formazan as measured via image processing using a Cellomics VTI automated microscopy system. […] Increasing the amount of Abeta oligomers eventually results in overt toxicity. Thus, the concentration of neuroactive Abeta oligomers used in the assay is much lower than that causing cell death. […] When configured in this manner, the assay is able to detect compounds that inhibit nonlethal effects of Abeta oligomer whether these compounds act via disruption of oligomers, inhibition of oligomer binding to neurons, or counteraction of signal transduction mechanisms of action initiated by oligomer binding.
Primary hippocampal neurons from E18 Sprague-Dawley rat embryos were plated at optimized concentrations in 384 well plates in NB media (Invitrogen). Neurons were maintained in cultures for 3 weeks, with twice weekly feeding of NB media with N2 supplement (Invitrogen).
A test compound was added to cells at concentrations ranging from 100 uM to 0.001 nM followed by addition of vehicle or Abeta oligomer preparations (3 μM total Abeta protein concentration), and incubated for 1 to 24 hr at 37° C. in 5% CO2. MTT reagent (3-(4,5-dimethylthizaol-2yl)-2,5diphenyl tetrazolium bromide) (Roche Molecular Biochemicals) was reconstituted in phosphate buffered saline to 5 mg/mL. 10 μL of MTT labeling reagent is added to each well and incubated at 37° C. for 1 h, then imaged. Exocytosis was assessed by automated microscopy and image processing to quantify the amount of endocytosed and exocytosed formazan.
Each assay plate was formatted so that compounds are tested with and without Abeta oligomer on each plate. This design eliminates toxic or metabolically active compounds early on in the screening cascade (at the level of the primary screen). Reduced formazan was first visible in intracellular vesicles. Eventual formazan exocytosis was accelerated via Abeta oligomers.
Human amyloid peptide 1-42 was obtained from a number of commercial vendors such as California Peptide, with lot-choice contingent upon quality control analysis. Quality controls of oligomer preparations consist of Westerns to determine oligomer size ranges and relative concentrations, and the MTT assay to confirm exocytosis acceleration without toxicity. Toxicity was monitored in each image-based assay via quantification of nuclear morphology visualized with the DNA binding blue dye DAPI (Invitrogen). Nuclei that are fragmented are considered to be in late stage apoptosis (Majno and Joris '95) and the test would be rejected. Peptide lots producing unusual peptide size ranges or significant toxicity at a standard 1.5 μM concentration on neurons would also be rejected.
Data handling and analysis were accomplished by Cellomics VTI image analysis software and STORE automated database software. Because of the low dynamic range and neuronal well-to-well variability after three weeks in culture, statistical comparisons are made via pairwise Tukey-Kramer analysis to determine the significance of the separation between compound+Abeta oligomers from Abeta alone, and between compound alone from vehicle. The ability of mature primary neurons to more closely approximate the electrophysiologically mediated signal transduction network of the adult brain justifies this screening strategy. […]

[2] = target: potassium channel hERG (Homo sapiens (Human), UniProt Q12809); assay: In vitro testing for hERG inhibition; type: biochemical; settings: in vitro toxicity potassium channel hERG
Procedure: In vitro testing for hERG inhibition was performed in a standard assay (See: Haverkamp W, Breithardt G, Carnm A J, Janse M J, Rosen M R, Antzelevitch C, Escande D, Franz M, Malik M, Moss A and Shah R. (2000) Eur Heat J 21 (15); 1216-31).

[3] = log P; type: physicochemical
Summary of the method: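 Ratio of un-ionized compound concentrations between octanol and water, with aqueous pH set so the un-ionized form predominates. Value given as the log of the octanol/water ratio.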

Sequence of potassium channel hERG (Q12809 whole entry): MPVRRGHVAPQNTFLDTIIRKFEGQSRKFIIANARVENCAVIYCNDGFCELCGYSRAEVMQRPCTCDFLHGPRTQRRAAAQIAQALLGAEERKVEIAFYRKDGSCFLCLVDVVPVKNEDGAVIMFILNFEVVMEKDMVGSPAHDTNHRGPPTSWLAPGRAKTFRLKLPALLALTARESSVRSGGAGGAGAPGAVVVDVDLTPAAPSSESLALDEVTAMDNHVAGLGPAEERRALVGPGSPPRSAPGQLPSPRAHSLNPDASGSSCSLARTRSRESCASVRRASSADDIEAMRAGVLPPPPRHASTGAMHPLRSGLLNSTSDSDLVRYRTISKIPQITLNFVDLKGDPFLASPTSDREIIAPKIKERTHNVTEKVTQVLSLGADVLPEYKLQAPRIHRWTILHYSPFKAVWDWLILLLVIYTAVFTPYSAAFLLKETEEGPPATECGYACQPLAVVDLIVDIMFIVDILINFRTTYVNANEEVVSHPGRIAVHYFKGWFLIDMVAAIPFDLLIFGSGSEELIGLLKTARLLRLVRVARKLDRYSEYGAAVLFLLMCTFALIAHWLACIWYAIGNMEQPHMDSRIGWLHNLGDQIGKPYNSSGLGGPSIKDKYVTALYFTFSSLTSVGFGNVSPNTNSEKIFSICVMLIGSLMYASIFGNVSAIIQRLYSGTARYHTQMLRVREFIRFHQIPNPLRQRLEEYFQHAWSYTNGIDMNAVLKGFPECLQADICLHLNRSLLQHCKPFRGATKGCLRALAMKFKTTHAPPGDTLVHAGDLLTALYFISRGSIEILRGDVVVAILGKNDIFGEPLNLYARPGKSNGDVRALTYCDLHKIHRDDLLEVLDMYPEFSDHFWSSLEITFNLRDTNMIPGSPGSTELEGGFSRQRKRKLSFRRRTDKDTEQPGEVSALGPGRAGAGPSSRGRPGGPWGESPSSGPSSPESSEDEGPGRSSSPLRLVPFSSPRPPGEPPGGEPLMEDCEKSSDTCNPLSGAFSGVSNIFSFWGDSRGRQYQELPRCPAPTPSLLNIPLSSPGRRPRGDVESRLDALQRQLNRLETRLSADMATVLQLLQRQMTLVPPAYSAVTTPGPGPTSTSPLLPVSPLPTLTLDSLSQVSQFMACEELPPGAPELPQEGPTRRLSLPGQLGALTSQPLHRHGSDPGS

| SMILES | EC50 [1] | IC50 [2] | log P [3] |
| --- | --- | --- | --- |
| COC[C@@H]1CCCN1[C@@H](C=C(C)C)CC(C)(C)c1ccccc1 [Compound 249] | 15 µM | 9.4 µM | 5.07 |
| COCCC1(O)CCN(C(C=C(C)C)CC(C)(C)c2ccc(C(F)(F)F)cc2)CC1 (stereo not drawn) [Compound 210] | 0.42 µM | 4.4 µM | 4.79 |
| CC(CC(C)(C)c1ccc(Cl)cc1)N1CCCC1CO (stereo not drawn) [Compound 229] | 15 µM | 21 µM | 4.03 |
| CC(C)=CC(CC(C)(C)c1ccc(C(F)(F)F)cc1)N1CCC(C)(O)CC1 (stereo not drawn) [Compound 129] | 1.3 µM | 24 µM | 5.13 |
| CC(C)=CC(CC(C)(C)c1ccc(C(F)(F)F)cc1)N1CCC(N2CCCCC2)CC1 (stereo not drawn) [Compound 127] | 0.3 µM | 3.3 µM | 6.41 |
| CC(C)=CC(CC(C)(C)c1ccccc1)N1CCC(C)(O)CC1 (stereo not drawn) [Compound 213] | 6.6 µM | 6.4 µM | 4.25 |
| CC(C)=CC(CC(C)(C)c1ccc(OC(C)C)cc1)N1CCC(C)(O)CC1 (stereo not drawn) [Compound 180] | – | 20 µM | 4.87 |
| CC(C)=CC(CC(C)(C)c1ccc(C(F)(F)F)cc1)N1CCC(O)(c2ccccc2)CC1 (stereo not drawn) [Compound 205] | 0.59 µM | 3.9 µM | 6.5 |
| CC(C)=CC(CC(C)(C)c1ccc(Cl)cc1)N1CCC(CCOC2CCOC2)CC1 (stereo not drawn) [Compound 181] | – | 1.8 µM | 5.95 |
| CC(C)=CC(CC(C)(C)c1ccc(C(F)(F)F)cc1)N1CCC[C@H]1CO (stereo partly drawn) [Compound 236] | 15 µM | 20 µM | 5.31 |
| COCC1CCCN1C(C=C(C)C)CC(C)(C)c1ccccc1 (stereo not drawn) [Compound 252] | 15 µM | 7 µM | 5.07 |
| COC[C@@H]1CCCN1[C@@H](C=C(C)C)CC(C)(C)c1ccc(F)cc1 [Compound 244] | 8.5 µM | 4.8 µM | 5.22 |
| COCCC1(O)CCN(C(C=C(C)C)CC(C)(C)c2ccc(Cl)cc2)CC1 (stereo not drawn) [Compound 217] | 4.6 µM | 7.7 µM | 4.51 |
| CC(CC(C)(C)c1ccc(C(F)(F)F)cc1)N1CC[C@H](O)C1 (stereo partly drawn) [Compound 233] | 0.26 µM | 24 µM | 3.79 |
| CC(C)=CC(CC(C)(C)c1ccc(Cl)cc1)N1CC[C@H](O)C1 (stereo partly drawn) [Compound 230] | 10 µM | 16 µM | 4.52 |
| COCCCC1CCN(C(C=C(C)C)CC(C)(C)c2ccc(OC(C)(C)C)cc2)CC1 (stereo not drawn) [Compound 183] | – | 2.1 µM | 6.79 |
| CC(C)=CC(CC(C)(C)c1ccc(Cl)cc1)N1CCN(C(=O)OCC(C)C)CC1 (stereo not drawn) [Compound 198] | – | 4.8 µM | 6.2 |
| CC(C)=CC(CC(C)(C)c1ccccc1)N1CCC(O)CC1 (stereo not drawn) [Compound 201] | 15 µM | 15 µM | 3.97 |
| CC(C)=CC(CC(C)(C)c1ccc(F)cc1)N1CCC(N2CCOCC2)CC1 (stereo not drawn) [Compound 126] | 0.3 µM | 7.4 µM | 4.61 |
| CCOC1CCN(C(C=C(C)C)CC(C)(C)c2ccc(Cl)cc2)CC1 (stereo not drawn) [Compound 136] | 1.5 µM | 2.1 µM | 5.58 |
| CCCCC1(O)CCN(C(C=C(C)C)CC(C)(C)c2ccc(C(F)(F)F)cc2)CC1 (stereo not drawn) [Compound 212] | 1.8 µM | 27 µM | 6.54 |
| CC(CC(C)(C)c1ccc(Cl)cc1)N1CCC(O)C1 (stereo not drawn) [Compound 250] | 15 µM | 28 µM | 3.51 |
| COCC1CCCN1C(C)CC(C)(C)c1ccc(Cl)cc1 (stereo not drawn) [Compound 238] | 15 µM | 13 µM | 4.67 |
| CC(C)=CC(CC(C)(C)c1ccc(Cl)cc1)N1CCC2(CC1)OCc1ccccc12 (stereo not drawn) [Compound 187] | – | 1 µM | 6.62 |
| CC(C)=CC(COc1ccc(Cl)cc1)N1CCC(CCO)CC1 (stereo not drawn) [Compound 188] | – | 0.4 µM | 4 |
